Reference: patent publication US9212168B2 (priority 2011, dated 2015)

system: HCV genotype 1a replicon; experiment: HCV genotype 1a replicon assay (NS3 protease activity readout); format: cell-based, hepatitis C virus; details: HCV genotype 1a replicon
How it was run: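 EC50 values came from a 4-parameter robust fit of fluorescence (ex 340, em 509 nm) produced by NS3-specific protease in lysates, assayed with 15 μM FRET substrate for 20 min at 37° C, after 48 or 72 hours of compound exposure (0.5% DMSO) of Huh7.5-derived APC89 genotype 1a replicon cells.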

Row | SMILES | Genotype 1a
1 | COC(=O)N[C@H](C(=O)N1C[C@@H](C)C[C@H]1c1nc(-c2ccc(-c3cc(Cl)c(C(=O)Nc4ccc(N5CCN(C(=O)C(C)(C)C)C[C@H]5C)nc4)cc3OC(F)(F)F)cc2)c(Cl)[nH]1)C(C)C [Example 4-47] | C (C represents pEC50 between and 9 and about 10, (EC50 between 1 nM and 0.1 nM))
2 | COC(=O)N[C@H](C(=O)N1C[C@@H](C)C[C@H]1c1nc(-c2ccc(-c3cc(Cl)c(NC(=O)c4ccc(N5CCN(C(=O)C(C)(C)CO)C(CO)C5)nc4)cc3OC(F)(F)F)cc2)c[nH]1)C(C)C (some centres unmarked) [Example 14-4] | B (B represents pEC50 between 8 and 9 (EC50 between 1 and 10 nM))
3 | COC(=O)N[C@H](C(=O)N1C[C@@H](C)C[C@H]1c1nc(-c2ccc(-c3cc(F)c(NC(=O)c4ccc(N5C[C@H](C)N(C(=O)c6c[nH]cn6)C[C@H]5C)nc4)cc3C(F)(F)F)cc2)c[nH]1)C(C)C [Example 1-21] | D (D represents pEC50>10 (EC50<0.1 nM))
4 | COC(=O)NC(C(=O)N1C[C@@H](OC)C[C@H]1c1nc(-c2ccc(-c3cc(Cl)c(NC(=O)c4ccc(N5CCN(C(=O)C(C)(C)CO)C[C@H]5C)nc4)cc3C(F)(F)F)cc2)c[nH]1)C1CCS(=O)(=O)CC1 (single isomer, unassigned) [Example 19-12] | D (D represents pEC50>10 (EC50<0.1 nM))
5 | COC(=O)N[C@H](C(=O)N1C[C@@H](C)C[C@H]1c1nc(-c2ccc(-c3ccc(C(=O)Nc4ccc(N5CCN(C(=O)C(C)(C)C)C[C@H]5C)nc4)cc3OC(F)F)cc2)c[nH]1)C1CCOCC1 [Example 25-5] | D (D represents pEC50>10 (EC50<0.1 nM))
6 | COC(=O)N[C@H](C(=O)N1C[C@@H](OC)C[C@H]1c1nc(-c2ccc(-c3cc(Cl)c(NC(=O)c4ccc(N5CCN(C(=O)C(C)(C)CO)C[C@H]5C)nc4)cc3C(F)(F)F)cc2)c[nH]1)C1CCOCC1 [Example 19-13] | D (D represents pEC50>10 (EC50<0.1 nM))
7 | COC(=O)N[C@H](C(=O)N1C[C@@H](C)C[C@H]1c1nc(-c2ccc(-c3cc(Cl)c(NC(=O)c4ccc(N5CCN(C(=O)C6CC6(Cl)Cl)C[C@H]5C)nc4)cc3OC(F)(F)F)cc2)c[nH]1)C(C)C (single isomer, unassigned) [Example 1-56] | D (D represents pEC50>10 (EC50<0.1 nM))
8 | CNC(=O)N1CCN(c2ccc(NC(=O)c3ccc(-c4ccc(-c5c[nH]c([C@@H]6C[C@H](C)CN6C(=O)[C@@H](NC(=O)OC)C(C)C)n5)cc4)c(OC(F)(F)F)c3)cn2)[C@H](C)C1 [Example 4-34] | C (C represents pEC50 between and 9 and about 10, (EC50 between 1 nM and 0.1 nM))
9 | COC(=O)N[C@H](C(=O)N1C[C@@H](C)C[C@H]1c1nc(-c2ccc(-c3cc(F)c(NC(=O)c4ccc(N5CCN(C(=O)c6c[nH]cn6)C[C@H]5C)nc4)cc3OC(F)(F)F)cc2)c[nH]1)C(C)C [Example 1-25] | D (D represents pEC50>10 (EC50<0.1 nM))

same assay, conditions: Hepatitis C virus, read-out: Genotype 1a, HCV genotype 1a replicon

Row | SMILES | EC50 [nM]
10 | COC(=O)N[C@H](C(=O)N1C[C@@H](C)C[C@H]1c1nc(-c2ccc(-c3cc(Cl)c(NC(=O)c4ccc(N5CCN(C(=O)C(C)(C)CNC(=O)CCCC(=O)O)C[C@H]5C)nc4)cc3OC(F)(F)F)cc2)c[nH]1)C(C)C [Example 12-34] | 0.1 to 1
11 | COC(=O)N[C@H](C(=O)N1C[C@@H](C)C[C@H]1c1nc(-c2ccc(-c3cc(Cl)c(NC(=O)c4ccc(N5CCN(C(=O)C(C)(C)C)C[C@H]5C)nc4)cc3OC(F)(F)F)cc2)c[nH]1)C1CCCCC1 [Example 13-39] | 1 to 10
12 | COC(=O)N[C@H](C(=O)N1C[C@@H](C(N)=O)C[C@H]1c1nc(-c2ccc(-c3cc(Cl)c(NC(=O)c4ccc(N5CCN(C(=O)OC(C)(C)C)C[C@H]5C)nc4)cc3OC(F)(F)F)cc2)c[nH]1)C(C)C [Example 15-10] | 1 to 10
13 | COC(=O)N[C@H](C(=O)N1CC(C)(C)C[C@H]1c1nc(-c2ccc(-c3ccc(C(=O)Nc4ccc(N5CCN(C(=O)[C@]6(C)CCCN6C(=O)[C@@H](NC(=O)OC)C(C)C)C[C@H]5C)nc4)cc3OC(F)(F)F)cc2)c[nH]1)C(C)C [Example 6-6] | 0.1 to 1
14 | COC(=O)N[C@H](C(=O)N1C[C@@H](N(C)C)C[C@H]1c1nc(-c2ccc(-c3ccc(C(=O)Nc4ccc(N5CCN(C(=O)C(C)(C)C)C[C@H]5C)nc4)cc3OC(F)(F)F)cc2)c(Cl)[nH]1)C(C)C [Example 10-3] | < 0.1
